US10829492B2, “Amino pyrazolopyrimidine compound used as neurotrophic factor tyrosine kinase receptor inhibitor” (CHIA TAI TIANQING PHARMACEUTICAL GROUP CO., LTD., priority 2016, dated 2020)

The compounds below were run against TrkA kinase (Homo sapiens (Human), UniProt P04629) (assay: HTRF assay for inhibitory activity (IC50) against NTRK kinase, TrkA). Settings: Table 1, ATP 40 μM, kinase 0.5 nM.
Format: biochemical
Method: 1. Assay for Inhibitory Activity (IC50) Against NTRK Kinase
A testing platform for TrkA, TrkB and TrkC kinase activity was established based on Homogeneous Time-Resolved Fluorescence (HTRF) assay, and the activities of the compounds were tested using the platform. The compounds were subjected to three-fold gradient dilution with 100% DMSO with a starting concentration of 1 mM (11 concentrations in total). 4 μL of diluted sample for each concentration was added to 96 μL of reaction buffer (50 mM HEPES, pH7.4, 5 mM MgCl2, 1 mM NaVO3, 0.001% Tween-20, 0.01% BSA and 1 mM DTT) and mixed homogeneously to be used as a 4* compound. The reaction buffer was used to formulate 2* TrkA, TrkB and TrkC kinases (purchased from Carna Biosciences 08-186, 08-187, 08-197, and the final concentrations thereof were 0.5 nM, 0.1 nM, and 1 nM, respectively) and 4* substrate mixture (ATP+TK peptide) (wherein the final concentrations of ATP were 40 μM, 50 μM, and 20 μM, respectively; TK peptide, HTRF® KinEASE™-TK, was purchased from Cisbio, and the final concentration thereof was 100 nM) for use. 2.5 μL of the 4* compound was added to a 384-well plate (OptiPlate-384, purchased from PerkinElmer), and then 5 μL of the 2* TrkA, TrkB and TrkC kinases were added, and mixed homogeneously by centrifugation. Then 2.5 μL of the 4* substrate mixture was added to initiate the reaction (the total reaction volume is 10 μL). The 384-well plate was placed in an incubator and incubated for 60 min at 23° C. Then the reaction was terminated by adding 5 μL of Eu3+ cryptate-labeled anti-phosphotyrosine antibody (HTRF® KinEASE™-TK, purchased from Cisbio), and 5 μL of Streptavidin-XL-665 (HTRF® KinEASE™-TK, purchased from Cisbio). After incubated for 1 hr in the incubator, the fluorescence values were read on Envision (purchased from PerkinElmer). The excitation wavelength was 320 nm, and the emission wavelengths for detection were 665 nm and 620 nm. The enzymatic activity was represented by a ratio of the two readout at the two emission wavelengths. The enzymatic activity for each compound was tested at 11 concentrations, and IC50 values of the compounds were obtained by calculating the data using GraFit6.0 software (Erithacus Software).

Chain of TrkA kinase (P04629 33-796): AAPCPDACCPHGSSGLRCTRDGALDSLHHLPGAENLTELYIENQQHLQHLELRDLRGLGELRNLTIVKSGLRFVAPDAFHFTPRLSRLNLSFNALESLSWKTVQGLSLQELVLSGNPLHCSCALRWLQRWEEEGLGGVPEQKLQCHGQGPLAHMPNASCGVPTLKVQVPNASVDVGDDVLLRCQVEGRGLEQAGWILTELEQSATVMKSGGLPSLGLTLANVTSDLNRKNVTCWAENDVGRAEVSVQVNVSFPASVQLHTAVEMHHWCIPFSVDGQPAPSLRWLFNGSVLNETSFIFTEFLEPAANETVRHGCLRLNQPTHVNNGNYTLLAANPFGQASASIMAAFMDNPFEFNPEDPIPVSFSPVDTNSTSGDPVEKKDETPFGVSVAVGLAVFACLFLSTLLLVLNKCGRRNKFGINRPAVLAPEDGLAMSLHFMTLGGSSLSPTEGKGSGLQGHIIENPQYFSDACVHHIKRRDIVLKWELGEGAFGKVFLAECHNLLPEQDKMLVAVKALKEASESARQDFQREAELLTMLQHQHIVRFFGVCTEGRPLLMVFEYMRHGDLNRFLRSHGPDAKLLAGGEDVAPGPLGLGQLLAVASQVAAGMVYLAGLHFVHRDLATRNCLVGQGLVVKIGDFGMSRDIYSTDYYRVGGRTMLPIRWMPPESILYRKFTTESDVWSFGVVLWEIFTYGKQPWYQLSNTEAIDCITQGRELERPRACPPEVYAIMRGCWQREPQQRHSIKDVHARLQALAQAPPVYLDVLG

SMILES	IC50 [nM]
N#Cc1c(N)nn2ccc(N3C[C@@H](O)C[C@@H]3c3cc(F)ccc3F)nc12 [Example 44, 2-amino-5-((2R,4S)-2-(2,5-difluorophenyl)-4-hydroxypyrrolidin-1-yl)pyrazolo[1,5-a]pyrimidine-3-carbonitrile]	< 25
CCOC(=O)c1c(N)nn2ccc(N3CC(F)(F)CC3c3cc(F)ccc3F)nc12 (stereo not shown) [Example 38, ethyl 2-amino-5-(2-(2,5-difluorophenyl)-4,4-difluoropyrrolidin-1-yl)pyrazolo[1,5-a]pyrimidine-3-carboxylate]	< 25
Nc1nn2ccc(N3CCCC3c3cc(F)ccc3F)nc2c1-c1nc(C(=O)N2CC[C@H](O)C2)cs1 (stereo partly drawn) [Example 30, (2-(2-amino-5-(2-(2,5-difluorophenyl)pyrrolidin-1-yl)pyrazolo[1,5-a]pyrimidin-3-yl)thiazol-4-yl)((S)-3-hydroxypyrrolidin-1-yl)methanone]	< 1
CCNc1nn2ccc(N3CCC[C@@H]3c3cc(F)ccc3F)nc2c1C(=O)OCC [Example 22, ethyl (R)-5-(2-(2,5-difluorophenyl)pyrrolidin-1-yl)-2-(ethylamino)pyrazolo[1,5-a]pyrimidine-3-carboxylate]	< 100
CCOC(=O)c1c(N)nn2ccc(N3CCC[C@@H]3c3cc(F)ccc3F)nc12 [Example 1, ethyl (R)-2-amino-5-(2-(2,5-difluorophenyl)pyrrolidin-1-yl)pyrazolo[1,5-a]pyrimidine-3-carboxylate]	< 1
NC(=S)c1c(N)nn2ccc(N3CCCC3c3cc(F)ccc3F)nc12 (stereo not shown) [Example 31, 2-amino-5-(2-(2,5-difluorophenyl)pyrrolidin-1-yl)pyrazolo[1,5-a]pyrimidine-3-thioamide]	< 1
NC(=O)c1c(N)nn2ccc(N3CCCC3c3cc(F)ccc3F)nc12 (stereo not shown) [Example 6, 2-amino-5-(2-(2,5-difluorophenyl)pyrrolidin-1-yl)pyrazolo[1,5-a]pyrimidine-3-carboxamide]	< 1
CCOC(=O)c1c(NC(C)=O)nn2ccc(N3CCC[C@@H]3c3cc(F)ccc3F)nc12 [Example 9, ethyl (R)-2-acetylamino-5-(2-(2,5-difluorophenyl)pyrrolidin-1-yl)pyrazolo[1,5-a]pyrimidine-3-carboxylate]	< 25
CCOC(=O)c1coc(-c2c(NCc3ccc(OC)cc3)nn3ccc(N4CCCC4c4cc(F)ccc4F)nc23)n1 (stereo not shown) [Example 26, ethyl 2-(5-(2-(2,5-difluorophenyl)pyrrolidin-1-yl)-2-((4-methoxybenzyl)amino)pyrazolo[1,5-a]pyrimidin-3-yl)oxazole-4-carboxylate]	< 100
Cn1cc(-c2c(N)nn3ccc(N4CCC[C@@H]4c4cc(F)ccc4F)nc23)cn1 [Example 34]	< 1
CNC(=O)c1c(N)nn2ccc(N3CCC[C@@H]3c3cc(F)ccc3F)nc12 [Example 3, (R)-2-amino-5-(2-(2,5-difluorophenyl)pyrrolidin-1-yl)-N-methylpyrazolo[1,5-a]pyrimidine-3-carboxamide]	< 1
Nc1nn2ccc(N3CCC[C@@H]3c3cc(F)ccc3F)nc2c1C(=O)O [Example 2, (R)-2-amino-5-(2-(2,5-difluorophenyl)pyrrolidin-1-yl)pyrazolo[1,5-a]pyrimidine-3-carboxylic Acid]	< 100
Nc1nn2ccc(N3C[C@@H](F)C[C@@H]3c3cc(F)ccc3F)nc2c1C(=O)NC1CC1 [Example 51, 2-amino-N-cyclopropyl-5-((2R,4S)-2-(2,5-difluorophenyl)-4-fluoropyrrolidin-1-yl)pyrazolo[1,5-a]pyrimidine-3-carboxamide]	< 1
Nc1nn2ccc(N3C[C@@H](F)C[C@@H]3c3cc(F)ccc3F)nc2c1C(=O)NC1(CO)CC1 [Example 52, 2-amino-5-((2R,4S)-2-(2,5-difluorophenyl)-4-fluoropyrrolidin-1-yl)-N-(1-(hydroxymethyl)cyclopropyl)pyrazolo[1,5-a]pyrimidine-3-carboxamide]	< 1
Nc1cc2nc(N3CCCC3c3cc(F)ccc3F)ccn2n1 (stereo not shown) [Example 24, 5-(2-(2,5-difluorophenyl)pyrrolidin-1-yl)pyrazolo[1,5-a]pyrimidin-2-amine]	< 500
Nc1nn2ccc(N3CCC[C@@H]3c3cc(F)ccc3F)nc2c1C(=O)NCCO [Example 13, (R)-2-amino-5-(2-(2,5-difluorophenyl)pyrrolidin-1-yl)-N-(2-hydroxyethyl)pyrazolo[1,5-a]pyrimidine-3-carboxamide]	< 1

SMILES	IC50 [nM]
CCOC(=O)c1csc(-c2c(N)nn3ccc(N4CCCC4c4cc(F)ccc4F)nc23)n1 (stereo not shown) [Example 29, ethyl 2-(2-amino-5-(2-(2,5-difluorophenyl)pyrrolidin-1-yl)pyrazolo[1,5-a]pyrimidin-3-yl)thiazole-4-carboxylate]	< 1
CNc1nn2ccc(N3CCC[C@@H]3c3cc(F)ccc3F)nc2c1C(N)=O [Example 21, (R)-5-(2-(2,5-difluorophenyl)pyrrolidin-1-yl)-2-(methylamino)pyrazolo[1,5-a]pyrimidine-3-carboxamide]	< 500
CN(C)CCNC(=O)c1c(N)nn2ccc(N3CCC[C@@H]3c3cc(F)ccc3F)nc12 [Example 19, (R)-2-amino-5-(2-(2,5-difluorophenyl)pyrrolidin-1-yl)-N-(2-(dimethylamino)ethyl)pyrazolo[1,5-a]pyrimidine-3-carboxamide]	< 1
CCOC(=O)c1c(N)nn2ccc(N3CCCC3c3cc(F)ccc3F)nc12 (stereo not shown) [Example 5, ethyl 2-amino-5-(2-(2,5-difluorophenyl)pyrrolidin-1-yl)pyrazolo[1,5-a]pyrimidine-3-carboxylate]	< 1
Cc1csc(-c2c(N)nn3ccc(N4CCCC4c4cc(F)ccc4F)nc23)n1 (stereo not shown) [Example 28]	< 25
Nc1nn2ccc(N3C[C@@H](F)C[C@@H]3c3cc(F)ccc3F)nc2c1C(=O)NCCO [Example 49, 2-amino-5-((2R,4S)-2-(2,5-difluorophenyl)-4-fluoropyrrolidin-1-yl)-N-(2-hydroxyethyl)pyrazolo[1,5-a]pyrimidine-3-carboxamide]	< 1
Cc1coc(-c2c(N)nn3ccc(N4CCCC4c4cc(F)ccc4F)nc23)n1 (stereo not shown) [Example 27]	< 25
CCOC(=O)c1c(N)nn2ccc(N3C[C@@H](F)C[C@@H]3c3cc(F)ccc3F)nc12 [Example 35, ethyl 2-amino-5-((2R,4S)-2-(2,5-difluorophenyl)-4-fluoropyrrolidin-1-yl)pyrazolo[1,5-a]pyrimidine-3-carboxylate]	< 1
CCOC(=O)c1c(N)nn2ccc(N3CC(=O)CC3c3cc(F)ccc3F)nc12 (stereo not shown) [Example 43, ethyl 2-amino-5-(2-(2,5-difluorophenyl)-4-oxopyrrolidin-1-yl)pyrazolo[1,5-a]pyrimidine-3-carboxylate]	< 25
Nc1nn2ccc(N3CCCC3c3cc(F)ccc3F)nc2c1-c1cccc(N2CCOCC2)c1 (stereo not shown) [Example 33, 5-(2-(2,5-difluorophenyl)pyrrolidin-1-yl)-3-(3-morpholinylphenyl)pyrazolo[1,5-a]pyrimidin-2-amine]	< 25
CCOC(=O)c1c(NCCN2CCOCC2)nn2ccc(N3CCC[C@@H]3c3cc(F)ccc3F)nc12 [Example 23, ethyl (R)-5-(2-(2,5-difluorophenyl)pyrrolidin-1-yl)-2-((2-morpholinylethyl)amino)pyrazolo[1,5-a]pyrimidine-3-carboxylate]	< 100
CCOC(=O)c1c(NC(=O)NC)nn2ccc(N3CCCC3c3cc(F)ccc3F)nc12 (stereo not shown) [Example 7, ethyl 5-(2-(2,5-difluorophenyl)pyrrolidin-1-yl)-2-(3-methylureido)pyrazolo[1,5-a]pyrimidine-3-carboxylate]	< 100
Nc1nn2ccc(N3CCC[C@@H]3c3cc(F)ccc3F)nc2c1C(=O)N1CCC(O)C1 (stereo partly drawn) [Example 10, (2-amino-5-((R)-2-(2,5-difluorophenyl)pyrrolidin-1-yl)pyrazolo[1,5-a]pyrimidin-3-yl) (3-hydroxypyrrolidin-1-yl)methanone]	< 25
NC(=O)c1c(N)nn2ccc(N3C[C@@H](O)CC3c3cc(F)ccc3F)nc12 (stereo in doubt) [Example 47, 2-amino-5-((2R,4S)-2-(2,5-difluorophenyl)-4-hydroxypyrrolidin-1-yl)pyrazolo[1,5-a]pyrimidine-3-carboxamide]	< 1000
CCOC(=O)c1c(NC)nn2ccc(N3CCC[C@@H]3c3cc(F)ccc3F)nc12 [Example 20, ethyl (R)-5-(2-(2,5-difluorophenyl)pyrrolidin-1-yl)-2-(methylamino)pyrazolo[1,5-a]pyrimidine-3-carboxylate]	< 1000
